From patent publication US20070059310A1, “Therapeutic combination compositions and methods of using same” (priority 2005, published 2007)

Assay: Aggregate number from ratio of molecular weights at pH 7 and pH 13 (GPC fractions)
Assay type: physicochemical
Experimental: The aggregate number of a β-glucan sample under a specified set of conditions can be determined by determining the average molecular weight of the polymer under those conditions. The β-glucan is then denatured, that is, subjected to conditions which separate any aggregates into their component single polymer chains. The average molecular weight of the denatured polymer is then determined. The ratio of the molecular weights of the aggregated and denatured forms of the polymer is the aggregate number. A typical β-glucan composition includes molecules having a range of chain lengths, conformations and molecular weights. Thus, the measured aggregate number of a β-glucan composition is the mass average aggregate number across the entire range of β-glucan molecules within the composition. […] For example, a measured aggregate number of about 6 or more is characteristic of a composition in which the β-glucan is substantially in the triple helix aggregate conformation. […]
The molecular weights of fractions A and C were determined at 25° C. at both pH 7 and pH 13, and at 37° C. at pH 7. […] Thus, at a given temperature the ratio of the molecular weights determined at pH 7 and pH 13 is the aggregate number at pH 7 at that temperature. […]

aggregate number (pH 7, 25° C.): about 3 | aggregate number (pH 7, 37° C.): about 3
Substance: scleroglucan
